As a reminder, the MIC is the smallest concentration in the dilution series that meets the test's criterion for growth inhibition. A higher MIC goes with a need for much substance.

Values after ≈ are worked out from the molar mass of the structure shown. Read-outs that look alike come from different tables or passages of the source. Where only a bound is given, the exact number is not on record here.

Consider nine molecules from patent publication US12630524B2, “Pleuromutilin in derivatives for treating viral infections” (ARIVA MED GMBH, priority 2020, dated 2026).

In data set [1] the test system is Streptococcus agalactiae lsa(E). Put plainly: Broth microdilution MIC (CLSI).
Data set [2] relates to Streptococcus pneumoniae ATCC49619. Nature of the data set: Broth microdilution MIC (CLSI). On the technique in general: In broth dilution the organism is exposed to a series of concentrations in liquid medium.
Data set [3] relates to Staphylococcus aureus vga(A) (+). Put plainly: Broth microdilution MIC (CLSI).
The subject of data set [4] is Staphylococcus aureus cfr (+). Put plainly: Broth microdilution MIC (CLSI).
In data set [5] the test system is Staphylococcus aureus ATCC49951. Nature of the data set: Broth microdilution MIC (CLSI).
Data set [6] is described as follows: Cellular toxicity to HEp2 cells, RSV ALONG / RSV B18537 assays. Format: cell-based. Particulars: human, RSV ALONG table, read-out: TC50 (the source's name).
Data set [7] can be described thus: Metabolic stability in primary human hepatocytes. The settings on record: 1 μg/mL, 4 hours, 37° C.
A short description of data set [8]: in vitro. The settings on record: human.
For data set [9], the system named is Measles virus strain Edmonston. Nature of the data set: microbe, parasite or virus in culture. Format: cell-based. Particulars: for EC50: Measles morbillivirus, HeLa.
For data set [10], the system named is respiratory syncytial virus (RSV B18537). Nature of the data set: Anti-RSV cytoprotection assay, strain RSV B18537. Format: cell-based.
A short description of data set [11]: in vitro. The settings on record: human. This is another data set of the same source.
Data set [12] relates to MRC-5 cells. Particulars: for cytotoxic effect on the viability of the cell control: MRC-5.
The subject of data set [13] is respiratory syncytial virus (RSV ALONG). Nature of the data set: Anti-RSV cytoprotection assay, strain RSV ALONG. Format: cell-based.
A short description of data set [14]: Cell viability of uninfected HEp2 drug control wells (XTT), RSVA2 assay. Format: cell-based, human. The settings on record: human, HEp2 cells (uninfected drug control wells); HEp2 cells, RSVA2 assay; read-out: TC50.
Data set [15] has as its system HEp2 cells. The description is as above. Format: cell-based, human. Particulars: HEp2.
In data set [16] the test system is alpha coronavirus 229E (HCoV-229E or CoV229E). Put plainly: Anti-coronavirus cytoprotection assay (inhibition of virus-induced CPE). Particulars: for reduction of viral CPE: MRC-5 / CoV229E; for EC50: Human coronavirus 229E, MRC5, 144 h. Format: cell-based, human corona virus (CoV229E). The procedure: Objective: The assay measured the inhibition of virus-induced cytopathic effects (CPE) and cell viability following alpha coronavirus 229E (HCoV-229E or CoV229E) in MRC-5 cells 6 days post infections with the virus by various concentrations of the investigated compounds.
Following incubation at 37° C. and at 5% CO2 for 6 days, cell viability was measured by XTT tetrazolium dye staining. The optical density of the cell culture plate was determined spectrophotometrically at 450 and 650 nm. Percent reduction of the virus-infected cells and the percent cell viability of uninfected drug control wells were calculated to determine the effective concentration at which 50% of cytopathic effect was inhibited (EC50) and the cytotoxic concentration (TC50) using four parameter curve fit analysis. The antiviral compound Remdesivir served as positive control.

In data set [17] the test system is human respiratory syncytial virus (strain RSVA2). Put plainly: Anti-RSV cytoprotection assay (strain RSVA2). Format: cell-based. The settings on record: for reduction of viral CPE: HEp2 / RSVA2; for EC50: human respiratory syncytial virus, HEp-2, 144 h, HEp2 cells infected with RSVA2, 6 days post infection, XTT. A general note: Tetrazolium dyes change colour on reduction, which living cells bring about.

A short description of data set [18]: Metabolic stability in primary mouse hepatocytes. Particulars: 1 μg/mL, 4 hours, 37° C.
For data set [19], the system named is influenza A virus strain (PR8). The settings on record: influenza A PR8, concentration of 2 mg/mL; cited from earlier work.
Data set [20] deals with polio virus. The settings on record: cited from earlier work.
For data set [21], the system named is herpes simplex type 1 (HSV-1) virus. The settings on record: cited from earlier work.
For data set [22], the system named is vesicular stomatitis virus (VSV). Particulars: cited from earlier work.
Data set [23] has as its system HeLa cells. Put plainly: Cellular toxicity to HeLa cells, measles assay. The settings on record: Ribavirin in μg/mL.
Data set [24] concerns influenza A virus, porcine reproductive and respiratory syndrome virus (PRRSV) type 1 and 2. Particulars: viral up-take assay 4 hours post inoculation, WO 2009/106839; cited from earlier work.
Setting [25] is: Streptococcus agalactiae lsa(E) (n = 2), Lefamulin resistant.
Where [26] appears, read: Staphylococcus aureus vga(A) (+), Lefamulin resistant.
Where [27] appears, read: Staphylococcus aureus cfr (+) (n = 2), Lefamulin resistant.
Setting [28] is: MRC-5 cells infected with CoV229E, 6 days post infection, XTT, read-out: EC50.
Setting [29] is: Staphylococcus aureus, ATCC49951.

On to “12-epi-12-desvinyl-14-O-[(azepan-4-ylsulfanyl)-acetyl]-12-((E)-2-pyridin-3-yl-ethenyl) mutilin hydrochloride [Example 154, reference compound]”, for which the MIC was 4 to 8 mg/L in data set [1] (setting [25]); at most 0.03 mg/L in data set [2]; 2 to 4 mg/L in data set [3] (setting [26]); 0.5 to 4 mg/L in [4] (setting [27]); at most 0.03 mg/L in data set [5] (Staphylococcus aureus ATCC49951, CAMHB).

On to `Cc1nccnc1/C=C/[C@@]1(C)C[C@@H](OC(=O)CSC2CCNCC2)[C@]2(C)[C@H](C)CC[C@]3(CCC(=O)[C@H]32)[C@@H](C)[C@@H]1O` [BC 9842, 12-epi-12-desvinyl-14-O-[(Piperidin-4-ylsulfanyl]-acetyl]-12-[2-(3-methyl-pyrazin-2-yl)-ethenyl]-mutilin], for which the CC50 in data set [6] turned out to be 22.4 µM; in data set [11], 24.1 µM. Besides, the “Metabolic stability against primary hepatocytes [% parent compound]” value is over 20% in data set [7]; over 20% in data set [7] (listed as BC-9842); 24.7% in data set [7] (listed as BC-¬9842); over 60% in [18]; over 60% in data set [18] (listed as BC-9842); 63.8% in data set [18] (listed as BC-¬9842). Also, the CC50 at 6 days in data set [8] and in data set [14] was 22.4 µM throughout. Besides, the “reduction of viral CPE” value is recorded as 69% in data set [9] (10 μM, HeLa / Measles virus); 100% in data set [16] (5 μM); 100% in [16] (10 μM); 52.85% in data set [17] (5 μM); 69.33% in data set [17] (10 μM). Besides, the EC50 was 5.36 µM in [9]; 6.77 µM in data set [10] (human respiratory syncytial virus, HEp-2, HEp2 cells infected with RSV B18537, MOI 0.001); over 22400 nM in data set [13] (human respiratory syncytial virus, HEp-2); 1.92 µM in data set [16] (setting [28]); 4.58 µM in data set [17]. Further, the “cytotoxic effect on the viability of the cell control” value in [12] (5 μM) is reported as “no cytotoxic effect”; in data set [12] (10 μM), “no cytotoxic effect”; in [12] (50 μM) it was “cytotoxic effect”; in data set [15] (5 μM) it was “no cytotoxic effect”; in data set [15] (10 μM) it was “no cytotoxic effect”; in [15] (50 μM), “cytotoxic effect”. For the same molecule, the MIC in data set [1] (Streptococcus agalactiae) is 0.5 to 1 mg/L (≈ 0.877 to 1.75 µM); in [1] (setting [25]), at most 4 mg/L; in data set [2], at most 0.03 mg/L; in data set [3] (Staphylococcus aureus) it was 4 mg/L (≈ 7.02 µM); in [3] (setting [26]), at most 4 mg/L; in data set [4] (Staphylococcus aureus) it was 1 to 2 mg/L (≈ 1.75 to 3.51 µM). Further, the minimal inhibitory concentration (MIC) was at most 4 mg/L in data set [4] (setting [27]) and at most 0.03 mg/L in data set [5] (setting [29]).

For `C=C[C@]1(C)C[C@@H](OC(=O)CS[C@@H]2CC[C@@H](N)C[C@H]2O)[C@]2(C)[C@H](C)CC[C@]3(CCC(=O)[C@H]32)[C@@H](C)[C@@H]1O` [Lefamulin, reference compound], the MIC in [1] (Streptococcus agalactiae) was 16 mg/L (≈ 31.5 µM); in data set [2], at most 0.03 mg/L; in [3] (Staphylococcus aureus), 8 mg/L (≈ 15.8 µM); in data set [4] (Staphylococcus aureus) it was 16 mg/L (≈ 31.5 µM); in [5] (setting [29]) it was at most 0.03 mg/L.

On to `C=C[C@]1(C)C[C@@H](OC(=O)CO)[C@]2(C)[C@H](C)CC[C@]3(CCC(=O)[C@H]32)[C@@H](C)[C@@H]1O` [Pleuromutilin], for which the antiviral activity result in data set [19] was “antiviral activity”; in data set [20], “did not show antiviral activity”. In [21], the “CPE50 (concentration conferring 50% protection of the cytopathic effect induced by HSV-1)” value was 15 µg/mL. The EC50 in [21] (read-out: CPE50 (concentration conferring 50% protection of the cytopathic effect induced by HSV-1)) was 40 µM. Also, the “activity against vesicular stomatitis virus” value in [22] was “activity”.

In data set [12] (human), `CCC(CC)COC(=O)[C@H](C)N[P@](=O)(OC[C@H]1O[C@@](C#N)(c2ccc3c(N)ncnn23)[C@H](O)[C@@H]1O)Oc1ccccc1` [Remdesivir, reference compound] returned a CC50 of over 5 µM. For the same molecule, the EC50 in data set [16] was determined as 0.11 µM.

In turn, `NC(=O)c1ncn([C@@H]2O[C@H](CO)[C@@H](O)[C@H]2O)n1` [Ribavirin, reference compound] had a TC50 in data set [23] of 21.6 mg/L (≈ 88.4 µM). Also, the EC50 in [9] worked out at 1.88 mg/L.

In the case of `C=C[C@]1(C)C[C@@H](OC(=O)CSCCN(CC)CC)[C@]2(C)[C@H](C)CC[C@]3(CCC(=O)[C@H]32)[C@@H](C)[C@@H]1O` [Tiamulin, reference compound], the “cytotoxic effect on the viability of the cell control” value is listed as “no cytotoxic effect” in data set [12] (10 μM) and “cytotoxic effect” in data set [12] (50 μM). Also, the “viability (cell control)” value in data set [15] (10 μM) is listed as 84%; in [15] (50 μM), 70.0%. Further, the “reduction of viral CPE” value in [16] (10 μM) worked out at 10.53%; in data set [16] (50 μM), 81.68%; in data set [17] (10 μM), 16.76%; in data set [17] (50 μM) it was 43.28%. The EC50 in [16] (setting [28]) was 24.4 µM; in [17], over 67.9 µM.

Consider `C=C[C@]1(C)C[C@@H](OC(=O)CSC(C)(C)CNC(=O)[C@H](N)C(C)C)[C@]2(C)[C@H](C)CC[C@]3(CCC(=O)[C@H]32)[C@@H](C)[C@@H]1O` [Valnemulin], for which the antiviral activity result in [24] was “did not exhibit antiviral activity”.

As for TMC353121 [reference compound], the EC50 in data set [10] (RSV B strain (RSV B18537), HEp2, text) was found to be 1e-05 µM; in [13] (RSV A strain (RSV ALONG), HEp2, text, read-out: EC50), 0.01 nM.
